Measured values: patent US20030109519A1, “Use of selective potassium channel openers” (priority 2001, published 2003)

Columns and labels:
diabetic Zucker rats = experiment: Oral glucose tolerance test after 3 weeks dosing in diabetic Zucker rats; assay type: in vivo, rat; details: male diabetic Zucker rats, 1.5 mg/kg bid for 3 weeks, vs vehicle
Method: (§1) A study was performed in a colony of diabetic Zucker rats housed in Vancouver, Canada. This is a model of hyperinsulinemia and impaired glucose tolerance/mild type 2 diabetes. The aim was to investigate whether treatment with the test compound 6-chloro-3-(1-methylcylodopropyl)amino-4H-thieno[3,2-e]-1,2,4-thiadiazine 1,1-dioxide could lead to a reduction in hyperinsulinemia and an improvement in insulin secretory responsiveness to glucose in the perfused pancreas. Male diabetic Zucker rats were dosed for 3 weeks with either 1.5 mg/kg 6-chloro-3-(1-methylcylodopropyl)amino-4H-thieno[3,2-e]-1,2,4-thiadiazine 1,1-dioxide bid (n=8) or vehicle (n=16). Oral glucose tolerance was assessed in the animals the day after the last dose was given.

perfused pancreas = experiment: Perfused pancreas from treated diabetic Zucker rats; assay type: in vivo, rat
Method: as §1

[1] = target: KATP-channels on pancreatic beta-cells (Homo sapiens, UniProt Q09428); details: by activation of KATP-channels on pancreatic beta-cells; Pirotte et al. 1993, 1994; cited from earlier work
KATP-channels on pancreatic beta-cells, sequence (Q09428 whole entry): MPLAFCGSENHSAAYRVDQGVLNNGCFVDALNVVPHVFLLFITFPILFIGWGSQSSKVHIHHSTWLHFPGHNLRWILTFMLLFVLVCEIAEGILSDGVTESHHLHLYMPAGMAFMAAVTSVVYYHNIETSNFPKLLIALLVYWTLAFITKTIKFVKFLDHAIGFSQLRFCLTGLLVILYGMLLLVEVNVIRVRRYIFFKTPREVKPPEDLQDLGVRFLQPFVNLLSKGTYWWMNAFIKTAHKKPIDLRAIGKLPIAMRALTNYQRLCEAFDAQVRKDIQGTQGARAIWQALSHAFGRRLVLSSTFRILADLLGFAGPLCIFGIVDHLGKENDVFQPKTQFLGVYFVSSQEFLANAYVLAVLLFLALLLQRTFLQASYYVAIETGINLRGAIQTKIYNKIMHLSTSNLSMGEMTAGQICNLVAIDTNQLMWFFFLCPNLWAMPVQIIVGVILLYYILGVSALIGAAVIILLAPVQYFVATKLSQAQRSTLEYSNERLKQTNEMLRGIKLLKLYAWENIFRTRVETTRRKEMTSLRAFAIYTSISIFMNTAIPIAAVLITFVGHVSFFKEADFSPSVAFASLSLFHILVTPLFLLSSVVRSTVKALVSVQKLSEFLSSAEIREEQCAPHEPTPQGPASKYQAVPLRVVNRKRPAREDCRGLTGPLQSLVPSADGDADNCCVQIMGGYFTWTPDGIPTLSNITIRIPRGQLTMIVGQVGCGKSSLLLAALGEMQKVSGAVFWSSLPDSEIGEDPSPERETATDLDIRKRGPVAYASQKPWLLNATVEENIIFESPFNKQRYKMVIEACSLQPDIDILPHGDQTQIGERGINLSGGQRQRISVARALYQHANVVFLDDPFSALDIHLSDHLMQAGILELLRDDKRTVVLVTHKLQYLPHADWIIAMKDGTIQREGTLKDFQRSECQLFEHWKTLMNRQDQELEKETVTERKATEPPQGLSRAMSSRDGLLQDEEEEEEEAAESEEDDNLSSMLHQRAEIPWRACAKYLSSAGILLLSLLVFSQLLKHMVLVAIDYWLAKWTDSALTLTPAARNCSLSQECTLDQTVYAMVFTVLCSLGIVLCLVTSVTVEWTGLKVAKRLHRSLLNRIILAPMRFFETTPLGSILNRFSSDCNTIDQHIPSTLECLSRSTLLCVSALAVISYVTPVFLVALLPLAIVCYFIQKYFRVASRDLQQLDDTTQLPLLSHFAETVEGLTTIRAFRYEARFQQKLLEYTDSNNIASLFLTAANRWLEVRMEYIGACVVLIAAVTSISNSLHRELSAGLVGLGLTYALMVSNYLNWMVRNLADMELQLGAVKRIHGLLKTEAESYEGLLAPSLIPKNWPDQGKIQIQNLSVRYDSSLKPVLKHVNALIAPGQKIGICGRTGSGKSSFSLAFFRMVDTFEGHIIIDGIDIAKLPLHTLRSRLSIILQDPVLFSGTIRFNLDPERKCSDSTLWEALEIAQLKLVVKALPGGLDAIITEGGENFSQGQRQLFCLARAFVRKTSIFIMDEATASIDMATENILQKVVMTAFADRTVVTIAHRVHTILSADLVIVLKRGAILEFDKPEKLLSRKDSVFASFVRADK
KATP-channels on pancreatic beta-cells, sequence (Q14654 whole entry partner): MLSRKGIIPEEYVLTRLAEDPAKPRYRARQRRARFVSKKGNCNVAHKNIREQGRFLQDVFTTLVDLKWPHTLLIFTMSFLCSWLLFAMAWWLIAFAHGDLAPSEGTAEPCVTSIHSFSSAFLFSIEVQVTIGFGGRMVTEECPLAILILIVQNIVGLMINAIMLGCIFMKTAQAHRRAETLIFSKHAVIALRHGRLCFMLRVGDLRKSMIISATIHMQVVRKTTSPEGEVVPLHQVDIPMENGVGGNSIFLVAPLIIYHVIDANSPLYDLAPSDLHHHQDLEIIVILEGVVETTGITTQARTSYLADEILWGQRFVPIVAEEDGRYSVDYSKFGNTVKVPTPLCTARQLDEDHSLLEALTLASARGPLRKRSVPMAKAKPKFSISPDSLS

Row | Compound | oral glucose tolerance (diabetic Zucker rats; assessed the day after the last dose) | hyperinsulinemia (associated with the oral glucose tolerance test) (diabetic Zucker rats; day after the last dose) | hyperinsulinemia in perfused pancreas (perfused pancreas; pancreata from rats treated 1.5 mg/kg bid for 3 weeks, evaluated two days after OGTT) | insulin secretory responsiveness to glucose in perfused pancreas (perfused pancreas; pancreata from treated rats, two days after OGTT, data expressed relative to baseline) | insulin release [1]
1 | CC1(NC2=NS(=O)(=O)c3sc(Cl)cc3N2)CC1 [6-chloro-3-(1-methylcylodopropyl)amino-4H-thieno[3,2-e]-1,2,4-thiadiazine 1,1-dioxide] | significantly improved | significant reduction in hyperinsulinemia | reduced hyperinsulinemia | improved insulin secretory responsiveness to glucose | 
2 | CC1=Nc2ccc(Cl)cc2S(=O)(=O)N1 [diazoxide, 7-chloro-3-methyl-2H-1,2,4-benzothiadiazine 1,1-dioxide] |  |  |  |  | inhibit insulin release
